PubChem BioAssay AID1241 (SRMLSC, 2008)
pEC50: −log10 of the molar value.

assay: NF-kB promoter reporter activators, neuronal cells, dose response, cell-based, SH-SY5Y, luciferase (AID 1241); conditions: fold induction

Row | SMILES | pEC50
1 | COc1ccccc1/C=C/C(=O)Nc1ccc2c(c1)OCCO2 | 5.92
2 | O=C(Nc1ccc(N2CCCC2)c(Cl)c1)c1ccco1 | 5.78
3 | Cn1cccc1C(=O)C(=O)Nc1ccc(Cl)cc1 | 4.60
4 | COc1ccc(-c2cn3ccc4ccccc4c3n2)cc1 | 6.15
5 | O=C(Nc1ccc(Cl)cc1)C1=Cc2ccccc2OC1 | 5.65
6 | COc1ccc(-c2nnc(SCc3ccccc3F)o2)cc1 | 5.41
7 | CCCCOC(=O)Nc1ccc(N2CCCCC2)cc1 | 4.69
8 | Cc1cccn2cc(-c3ccc(F)cc3)nc12 | 5.73
9 | O=C1C=C(Nc2ccccc2)C(=O)c2ccccc21 | 5.87
10 | Clc1ccccc1-c1nnc(-c2ccc3c(c2)OCO3)o1 | 5.85
11 | CC(=Nc1ccc(O)cc1)c1sc2ccccc2c1O | 5.67
12 | Cc1ccc(-c2cc(-c3ccccc3Cl)[nH]n2)c(O)c1 | 5.15
13 | COc1ccc(C(=O)/C=C/Nc2ccc(C)cn2)cc1OC | 5.19
14 | CCCCCCOc1ccc(OC(=O)c2cccnc2)cc1 | 6.72
15 | CC(C)c1ccc(OCc2nc(-c3ccccn3)no2)c(Br)c1 | 5.99
16 | CC(=O)c1ccc(NC(=O)/C(Cl)=C/c2ccccc2)cc1 | 5.37
17 | O=C(Nc1ccc(N2CCOCC2)c(Cl)c1)c1cccc(F)c1 | 5.07
18 | CCOC(=O)c1sc(NC(=O)c2ccccc2)cc1C | 5.24
19 | Cc1ccc(N/C=C/C(=O)c2cccs2)cc1C | 6.57
20 | CCOC(=O)Cc1ccc2sc(-c3ccccc3)nc2c1 | 5.19
21 | CC(C)c1oc(=O)cc2c1[C@@H](O)[C@H]1OC(=O)[C@@]3(C)C[C@@H](O)[C@@H](O)[C@@]2(C)C13 (some centres not stated) | 5.35
22 | O=C1c2ccccc2NC(c2cnc3ccccc3n2)N1O (configuration not stated) | 6.04
23 | CCSc1ccc(-c2ccc(C)cc2)nn1 | 6.16

Row | SMILES | pEC50
24 | Cc1ccc(OCCSc2ncccn2)c(C)c1 | 5.27
25 | CN(c1ccc(O)cc1)c1nc(-c2ccccc2)cs1 | 5.99
26 | Cc1ccc(-n2c(C)cc(C(=O)CSc3nnnn3C)c2C)cc1 | 5.88
27 | Fc1ccccc1OCCSc1nnnn1-c1ccccc1 | 5.91
28 | N/C(=N\OC(=O)c1cc(Br)ccc1Cl)c1ccccn1 | 5.65
29 | COc1cc(SC)ccc1C(=O)Nc1ccc2c(c1)OCO2 | 5.89
30 | O=C(Nc1ccc2oc(-c3ccccc3F)nc2c1)c1ncn[nH]1 | 5.67
31 | CCOC(=O)c1c(N)sc(C(=O)Nc2ccccc2)c1C | 5.71
32 | c1ccc2sc(NN=C3CCCC3)nc2c1 | 5.28
33 | CN(C)c1ccc(NC(=O)CCCc2ccccc2)cc1 | 5.61
34 | O=C(O)c1cccc(N/N=C/c2ccc(-c3ccccc3)cc2)c1 | 5.75
35 | Cc1ccc(C(=O)c2sc3nsc(C)c3c2N)cc1 | 5.70
36 | Cc1cnc(C(=O)Nc2ccc3c(c2)CCC3)cn1 | 5.61
37 | COc1cccc(N(C(=O)c2nc3nccc(C)n3n2)c2nc3ccccc3s2)c1 | 5.14
38 | c1cn2cc(-c3ccc4c(c3)OCO4)nc2s1 | 5.73
39 | COc1ccc2c(c1)CC/C(=C/c1ccco1)C2=O | 5.76
40 | O=C(/C=C/c1ccccc1[N+](=O)[O-])Nc1ccccc1 | 4.98
41 | Oc1ccccc1-c1cc(-c2ccccc2)no1 | 5.75
42 | O=C(O)c1cccc(N/N=C/c2cccs2)c1 | 5.88
43 | Cc1nc(NC(=O)c2csc3ccccc23)sc1C | 6.03
44 | O=Cc1cn(-c2ccccc2)nc1-c1ccc2c(c1)OCCO2 | 5.19
45 | CC(=O)c1c(C)[nH]c(C(=O)Nc2ccc3c(c2)OCCO3)c1C | 5.28
46 | O=C(CCCc1ccccc1)N1CCc2ccccc21 | 5.59

Row | SMILES | pEC50
47 | O=C1CC(c2ccco2)CC2=C1C1c3ccccc3C(=O)N1c1ccccc1N2 (configuration not stated) | 5.51
48 | Cc1ccc(-c2nc3ccc([N+](=O)[O-])cc3[nH]2)cc1 | 6.24
49 | N#CC1=C2SC=C(c3ccc(Br)cc3)N2CCCC1=O | 4.71
50 | O=C(Nc1nccs1)c1ccc(-c2ccc(Cl)cc2)o1 | 4.56
51 | Cc1ccc(C(=O)Nc2ccc(Cl)cn2)cc1 | 4.76
52 | CCc1ccc(-c2cn3c(n2)SCC3)cc1 | 5.01
53 | Oc1ccc(F)cc1-c1cc(-c2ccc3c(c2)OCCO3)n[nH]1 | 6.00
54 | COc1cccc(/C=N/Nc2nccnc2Cl)c1O | 5.66
55 | CC(=O)Nc1cccc(-c2csc(Nc3cccc(C)n3)n2)c1 | 5.79
56 | O=C(O)c1ccc(/C=N/Nc2ccc(F)cc2F)cc1 | 5.91
57 | CCOc1ccc(OCc2cccc(C(=O)O)c2)cc1 | 5.73
58 | Cc1ccsc1/C=N/Nc1nc2ccccc2[nH]1 | 5.08
59 | Cc1ccc(C2=NN(S(C)(=O)=O)C(c3ccc4c(c3)OCO4)C2)cc1 (configuration not stated) | 5.58
60 | O=C(Nc1cccnc1Cl)c1ccc2c(Cl)c3c(nc2c1)CCC3 | 6.17
61 | O=C(C=C1SCCS1)/C=C/c1ccco1 | 6.11
62 | COc1ccc(CN=C2Nc3ccccc3CS2)cc1 | 4.88
63 | O=C(Nc1ccc(Cl)cc1)N1CCC(c2ccccc2)C1 (configuration not stated) | 4.97
64 | Cc1nc2c(ccc3nc(NC(=O)c4ccc5c(c4)OCCO5)sc32)s1 | 6.11
65 | CCOC(=O)c1sc2nc(-c3cccnc3)ccc2c1N | 5.87
66 | COc1ccc(/C=C2\SC(=O)N(CCNC(=O)C3CC4C=CC3C4)C2=O)cc1 (configuration not stated) | 5.38
67 | Oc1ccc(CN2CCN(Cc3ccccc3)CC2)c2cccnc12 | 5.28
